# Test results published in US20100292232A1, “NON-NUCLEOSIDE REVERSE TRANSCRIPTASE INHIBITORS” (priority 2007, published 2010).
# pEC50, pIC50: −log10 of the molar value. “Also recorded” adds a separate entry of the source. Like-named read-outs stand apart in the source and are kept apart here.
# How the values were obtained:
# [1] = tested on: HIV-1 vector with RT mutation Y181C; assay: microbe, parasite or virus in culture; format: cell-based; conditions: Human immunodeficiency virus 1
# [2] = tested on: cells that express luciferase from established HIV-1 proviral DNA; assay: effect on provirus gene expression; format: cell-based; conditions: data not shown
# Excerpt: It also was investigated whether 08-006-F2 exerts an additional effect on provirus gene expression.
# [3] = tested on: HIV-1 vector with RT mutation V106A; assay: microbe, parasite or virus in culture; format: cell-based; conditions: Human immunodeficiency virus 1
# [4] = biological target: T1, HIV-1 reverse transcriptase (Human immunodeficiency virus type 1 group M subtype B, UniProt P04585); assay: in vitro purified HIV-1 reverse transcriptase assay; format: biochemical
# T1 construct: HIV-1 RT includes a p66/p51 heterodimer; purchased Ambion, Austin, Tex
# Description: Anti-HIV-1 reverse transcriptase activity of the disclosed inhibitor compounds was assayed in vitro using an assay adapted from King et al. (Antimicrob. Agents Chemother. 46(6): 1640-46; 2002) and Telesnitsky et al. (Methods Enzymol. 262:347-62; 1995). HIV-1 RT (0.5 units; Ambion, Austin, Tex.) was incubated with various concentrations of compounds for 5 minutes at room temperature. Then a template-primer mixture was added to reach final concentration of 5 μg/mL oligo(dT)20, 10 μg/mL poly(rA), 1.25 μM [α-32P]dTTP and 10 μM dTTP. The mixture was incubated at 37° C. for 60 minutes. Aliquots of the reaction were spotted on DEAE paper, washed twice with 2×SSC buffer (300 mM NaCl, 30 mM sodium citrate) and once with 95% ethanol, dried and exposed to PhosphorImager screen (Molecular Dynamics, Sunnyvale, Calif.). The screens were scanned by FLA-5100 instrument (Fujifilm Life Science, Stamford, Conn.) and the amount of incorporated labeled phosphate was used to quantify the RT activity. The best fitted curves and IC50 values were calculated using Prism 4 software (GraphPad Software, San Diego). […] For the in vitro studies, a triphosphate form of AZT (EMD Biosciences, San Diego, Calif.) was used.
# [5] = tested on: VSV-G pseudotyped HIV-1 vector (wild-type, pNL4-3LucR+E-); assay: microbe, parasite or virus in culture; format: cell-based; conditions: for pEC50 / pIC50: Human immunodeficiency virus 1, HEK-293T
# [6] = cytotoxicity, CellTiter-Glo (ATP content) 24 hours after treatment; conditions: human, mock-infected 293T cells
# [7] = tested on: HIV-1 reverse transcription viral DNA products; assay: real-time PCR quantitation of viral DNA products; format: cell-based; conditions: for effect on synthesis of early and late viral DNA products: 5 μM, 24 hours post infection, FIG. 18
# Description: Real-time quantitation of viral DNA was accomplished using PCR as follows. The total cellular DNA was harvested 24 hours post infection with the AccuPrep genomic DNA extraction kit (Bioneer Life Science Corp., Rockville, Md.). The amount of viral DNA products was quantified by real-time PCR on ABI Prism 7900 Sequence Detection System (Applied Biosystems, Foster City, Calif.) with the following primers and probes: early HIV-1 reverse transcripts with primers ert2f, ert2r, probe ERT2 (Munk et al., Proc. Natl. Acad. Sci. 99(21):13843-48; 2002, herein incorporated by reference as to the sequence of the primers), late HIV-1 reverse transcripts with primers MH531, MH532, probe LRT-P, 2-LTR circular DNA with primers MHH535, MH536, probe MH603 (Butler et al., Nat. Med. 7(5):631-4; 2001, herein incorporated by reference as to the sequence of the primers and probes). To control the number of cell equivalent DNA in the samples, a single-copy locus in the porphobilinogen deaminase (PBGD) gene (Buckman et al., J. Virol. 77(2):1469-80; 2003) was amplified with primers PBGD1 (5′-[…]; SEQ ID NO: 1) and PBGD2 (5′-[…]; SEQ ID NO: 2) and probe PBGD-P (5′-VIC-[…]-MGBNFQ; SEQ ID NO: 3).
# The quantitative real-time PCR-based approach described above was used to determine whether the presently disclosed compounds, such as 08-006-F2, block HIV infection at a step prior to the synthesis of late viral DNA products. Using different specific primers and probes, the amount of early viral DNA products, late viral DNA products, and 2LTR-containing circular forms of viral DNA, were quantified 24 hours post infection. […] As shown in F1G. 18, the effect of 5 μM compound 08-006-F2 and 5 μM AZT on the synthesis of viral DNA products was measured by quantitative real-time PCR. Quantitation of early and late HIV-1 reverse transcription products is illustrated, as is quantitation of 2-LTR containing circular DNA forms (the circular DNA forms serve as a surrogate marker for nuclear translocation of viral DNA). […]
# [8] = tested on: HIV-1 vector with RT mutation K103N; assay: microbe, parasite or virus in culture; format: cell-based; conditions: Human immunodeficiency virus 1
# [9] = tested on: wild-type and NNRTI mutant viruses (Y188L, Y181C, V106A, K103N); assay: cell based infectivity assay, wild type and four mutant vectors together; set-up: species or system HIV-1; conditions: FIGS. 22 and 24
# [10] = tested on: HIV-1 vector with RT mutation Y188L; assay: microbe, parasite or virus in culture; format: cell-based; conditions: Human immunodeficiency virus 1
# [11] = tested on: HIV reverse transcriptase having a mutation at codon 181 and 227; conditions: strains with RT mutation at codon 181 (cysteine) and 227 (leucine); U.S. Pat. No. 7,037,644; cited from earlier work
# [12] = tested on: HIV reverse transcriptase having a mutation at codons 103 alone or in combination with a mutation at codon 188; conditions: strains with RT mutation at codon 103 (asparagine) alone or with 188 (leucine); U.S. Pat. No. 7,037,644; cited from earlier work
# [13] = tested on: HIV reverse transcriptase having a mutation at codon 106 and 181 and 227; conditions: strains with RT mutation at codon 106 (alanine), 181 (cysteine) and 227 (leucine); U.S. Pat. No. 7,037,644; cited from earlier work
smiles,measurement,setting,value
Clc1ccccc1-c1nc2ccccn2c1NC1CCCCC1 [08-006-F2],pEC50,[1],5.97
same,effect on provirus gene expression,[2],no significant influence
same,pEC50,[3],6.12
same,pIC50,"[4]; FIG. 16 dose-response curve, read-out: IC50 inhibition of purified HIV-1 reverse transcriptase activity",5.55
same,combined effect with AZT on purified HIV-1 reverse transcriptase (isobologram),"[4]; combination with AZT triphosphate, 50% and 90% fractional inhibitory concentrations, FIGS. 17A, 17B",synergistic effect; also recorded: synergistic inhibition
same,combined effect with AZT on HIV-1 infectivity (isobologram),[5],synergistic effects; also recorded: synergistic inhibition
same,pEC50,[5],6.73
same,pIC50,[5],6.10
same,pIC50,[5]; read-out: IC50 inhibition of HIV-1 vector infectivity,6.77
same,CC50 at 24 h,[6],35000 nM
same,effect on synthesis of early and late viral DNA products,[7],blocked the synthesis of early and late viral DNA
same,inhibition of HIV-1 late RT product formation,"[7]; dose response, FIG. 19",dose-dependent inhibition
same,pEC50,[8],5.63
"Cc1cn([C@H]2C[C@H](N=[N+]=[N-])[C@@H](CO)O2)c(=O)[nH]c1=O [AZT, zidovudine]",pEC50,[1],8.21
same,inhibition of wild-type and NNRTI-resistant RT mutant viruses (in words),[9],efficiently inhibited
same,pEC50,[3],8.04
same,pEC50,[5],8.11
same,pEC50,[10],8.03
same,effect on synthesis of early and late viral DNA products,[7],block at the reverse transcription step
same,pEC50,[8],8.06
"Cc1ccnc2c1NC(=O)c1cccnc1N2C1CC1 [NVP, nevirapine]",pEC50,[1],5.70
same,pEC50,[3],6.05
same,pEC50,[5],7.56
same,pEC50,[10],3.55
same,pEC50,[8],6.01
CC(C)Nc1cccnc1N1CCN(C(=O)c2cc3cc(NS(C)(=O)=O)ccc3[nH]2)CC1 [delavirdine],change in drug susceptibility,[11],increase
same,change in drug susceptibility,[12],substantial decrease
same,change in drug susceptibility,[13],moderate decrease
O=C1Nc2ccc(Cl)cc2[C@@](C#CC2CC2)(C(F)(F)F)O1 [efavirenz],change in drug susceptibility,[11],increase
same,change in drug susceptibility,[12],substantial decrease
same,change in drug susceptibility,[13],slight decrease
"Cc1ccnc2c1NC(=O)c1cccnc1N2C1CC1 [nevirapine, Nevirapine]",change in drug susceptibility,[11],significant decrease
same,change in drug susceptibility,[12],substantial decrease
same,change in drug susceptibility,[13],substantial decrease
